Data: patent US20120283175A1, “ANTIBACTERIAL COMPOSITIONS” (Achaogen, Inc., priority 2009, published 2012)
≈ marks a conversion by molar mass, not a printed value. Where “and” joins values, the source holds several entries; their conditions need not be identical. Identical values can stand only once. Entries after “also recorded” stand apart in the source; their conditions may differ. Like-named read-outs stand apart in the source and are kept apart here.

How the values were obtained:
E. coli ATCC25922 = test: MIC by broth microdilution, wild type strain ATCC25922; type: cell-based
Description: (§1) Bacterial isolates were cultivated from −70° C. frozen stocks of the indicated strains by overnight passages at 35° C. in ambient air on Mueller-Hinton agar (Beckton Dickinson, Franklin Lakes, N.J.). Minimum Inhibitory Concentrations (MICs) were determined by the broth microdilution method in accordance with the Clinical and Laboratory Standards Institute (CLSI) guidelines. In brief, organism suspensions were adjusted to a 0.5 McFarland standard to yield a final inoculum between 3×10^5 and 7×10^5 colony-forming units (CFU)/mL. Drug dilutions and inocula were made in sterile, cation adjusted Mueller-Hinton Broth (Beckton Dickinson). An inoculum volume of 100 μL was added to wells containing 100 μL of broth with 2-fold serial dilutions of drug. All inoculated microdilution trays were incubated in ambient air at 35° C. for 18-24 hours. Following incubation, the lowest concentration of the drug that prevented visible growth (OD600 nm <0.05) was recorded as the MIC.

K. pneumo. (ATCC43816) = test: Neutropenic thigh in vivo efficacy model (mice); design: species or system Klebsiella pneumoniae; Static Dose, LpxC cmpd / Static Dose, LpxC in combination: unit not given here
Source text: (§2) The model was run essentially as described by Craig and others (see Gudmundsson et al., “Murine Thigh Infection Model,” Handbook of Animal Models of Infection, M. A. Sande and O. Zak, Eds.; London: Academic Press, 1999, pp 137-144). Briefly, mice were rendered neutropenic prior to infection with 2 doses of cyclophosphamide, and then infected intramuscularly in the thigh with inocula of 10^3-10^5 CFU of either K. pneumo. (ATCC43816) or P. aeruginosa (ATCC27853). Antibiotics or vehicle alone as a negative control were administered twice at 2 hrs and 14 hrs post-infection. The animals were kept neutropenic for the duration of the experiment in order to minimize the effect of white blood cells on the infection such that the microbiological readout measures the in vivo interaction of drugs and bacteria. At 24 hrs post-infection, thighs were harvested, homogenized, and plated to measure the number of CFUs surviving per thigh. Thighs from a subset of animals were also harvested 2 hrs post-infection to record the CFUs present just prior to the first antibiotic treatment (pre-treatment).

envA+ (D21) E. coli = test: MIC by broth microdilution, isogenic envA+ strain; type: cell-based
Description: as §1

envA1 (D22) E. coli = test: MIC by broth microdilution, isogenic envA1 mutant strain; type: cell-based; conditions: for MIC: Strain envA1 (D21); for Fold decrease in MIC (envA+/envA1): envA+ vs envA1 E. coli
Description: as §1

[1] = test system: P. aeruginosa (ATCC27853); conditions: for ΔLogCFU vs 24 hr / Log CFU Mean: 24 hr; for Log CFU Mean: n=5; for in vivo synergy with erythromycin: erythromycin 60 mg/kg
Source text: as §2
This table focuses on the sensitive part of the LpxCi-4 dose response curve (30 mg/kg) by examining the mean log CFU at 0 or 24 hours, as well as the log change in CFU at 24 hours relative to zero hours (“ΔLogCFU vs […]”). Data is given for animals treated with vehicle, LpxCi-4 at 30 mg/kg, a second agent alone at the indicated doses or the combination of LpxCi-4 at 30 mg/kg plus the second agent at the indicated dose. The standard errors for each measurement are also given (n=5 animals/group). By comparing the observed drop in CFU of the combination with the sum of the drop in CFU associated with each of the two agents given separately, one can determine whether the combination is, in fact, synergistic in vivo.

[2] = Pharmacokinetic studies of LpxCi-4 alone or in the presence of vancomycin; type: in vivo; conditions: for AUC / Cmax / Tmax / half-life: in vivo, 10 mg/kg
Description: This would result in a lower static dose for the LpxC inhibitor and apparent synergy. In order to address this, pharmacokinetic studies of LpxCi-4 either alone or in the presence of vancomycin at 220 mg/kg were performed. […] The half-life (HL_Lambda_z), time to maximum concentration (Tmax), maximal concentration (Cmax), and area under the concentration-time curve (AUC) for LpxCi-4 are provided.

Klebsiella pneumoniae = test: Checkerboard synergy assay with LpxCi-4; type: cell-based; conditions: combination with LpxCi-4
Source text: (§3) One classic method for assessing synergy, referred to as the checkerboard assay, is used to predict the efficacy of antibacterial agents, and is described by Scribner et. al., (Antimicrobial Agents and Chemotherapy 21(6):939-943 (1982)) and in Goodman & Gilman (The Pharmacological Basis of Therapeutics, Sixth Edition, pp. 1097-1098 (1980)). The checkerboard assay involves serial two-fold dilutions of the antibiotics individually and in combination in broth, which is then inoculated with the microorganism to be tested. After incubation, the minimum inhibitory concentration (MIC) of each drug used individually and in combination is determined (N.B., the MIC is the lowest concentration of the drug that inhibits growth in the medium). Synergism is indicated by a decrease in the MIC of each drug when used in combination. Antagonism is indicated by an increase in the MIC of either or both drugs when used in combination. Alternate methods of assessing synergy are reviewed in Greco, et al., Pharmacological Reviews 47(2):[…] (1995), incorporated herein by reference in its entirety.
(§4) Partial or full inhibition of LpxC should compromise the outer membrane and thus allow these synergizing agents to enter the cells and exert an antibacterial effect at concentrations where cells untreated with an LpxC inhibitor are unaffected. As a first step, checkerboard synergy assays for a variety of antibacterial agents were perform with several LpxC inhibitors, on several species of gram negative bacteria.
as §1
(§5) Standard checkerboard assays were performed with a combination of the indicated agents and LpxCi-4. Table 2 provides the FICI calculated according to standard techniques.

Pseudomonas aeruginosa = test: Checkerboard synergy assay with LpxCi-4; type: cell-based; conditions: combination with LpxCi-4 (3936); Pseudomonas aeruginosa (ATCC27853 in text)
Source text: as §3, §4, §1, §5

Yersinia enterocolitica = test: Checkerboard synergy assay with LpxCi-4; type: cell-based; conditions: combination with LpxCi-4
Source text: as §3, §4, §1, §5

Escherichia coli = test: Checkerboard synergy assay with LpxCi-4; type: cell-based; conditions: combination with LpxCi-4
Source text: as §3, §4, §1, §5

[3] = strain 43816, combination agent Rifampin
[4] = first block of Table 5, mg/kg/day b.i.d.: 3936 30, Rif. 30, Azith. 50
[5] = second block of Table 5, mg/kg/day b.i.d.: 3936 30, Eryth. 60, Dapto. 3, Oxacil. 100
[6] = strain 27853, combination agent Rifampin
[7] = strain 27853, combination agent Vanco
[8] = LpxCi-4 (10 mg/kg) + vancomycin (220 mg/kg)

## CC(C)(N)[C@H](NC(=O)c1ccc(C#CC#CC2CC2)cc1)C(=O)NO [LpxCi-4, (S)—N-(3-amino-1-(hydroxyamino)-3-methyl-1-oxobutan-2-yl)-4-(cyclopropylbuta-1,3-diynyl)benzamide]
E. coli ATCC25922
  MIC: 0.015 µg/mL (≈ 0.0442 µM)
K. pneumo. (ATCC43816); bacterial strain ATCC43816
  in vivo synergy with rifampin: in vivo synergy
  in vivo synergy with vancomycin: in vivo synergy
K. pneumo. (ATCC43816); strain 43816, LpxC compound alone
  Static Dose, LpxC cmpd: 36 and 33
K. pneumo. (ATCC43816); [3]
  Fold Shift Static Dose: 4x
  Static Dose, LpxC in combination: 9
K. pneumo. (ATCC43816); strain 43816, combination agent Vanco
  Fold Shift Static Dose: 6.6x
K. pneumo. (ATCC43816); strain 43816, combination agent Vanco (440 mg/kg/day)
  Static Dose, LpxC in combination: 5
K. pneumo. (ATCC43816); with rifampin, K. pneumoniae ATCC43816
  shift in static dose: 4 fold
envA+ (D21) E. coli
  MIC: 0.015 µg/mL (≈ 0.0442 µM)
envA1 (D22) E. coli
  MIC: ≦0.004
  Fold decrease in MIC (envA+/envA1): ≧4
[1]; [4]
  ΔLogCFU vs 24 hr: −1.57
  Log CFU Mean: 6.17
[1]; [5]
  ΔLogCFU vs 24 hr: −0.81
  Log CFU Mean: 6.83
[1]; bacterial strain ATCC27853
  in vivo synergy with daptomycin: does not exhibit in vivo synergy
  in vivo synergy with rifampin: in vivo synergy
  in vivo synergy with vancomycin: in vivo synergy
  in vivo synergy with erythromycin: modest in vivo synergy
[1]; bacterial strain ATCC27853, listed as LPxCi-4
  in vivo synergy with erythromycin: only a very modest shift in the dose response curve
[1]; bacterial strain ATCC27853, listed as 3936
  in vivo synergy with daptomycin: no measurable in vivo synergy
[1]; each agent at 30 mg/kg
  drop in CFU relative to vehicle: 1.57 log
[1]; strain 27853, LpxC compound alone
  Static Dose, LpxC cmpd: 60 and 42 and 50
[1]; strain 27853, combination agent Daptomycin
  Static Dose, LpxC in combination: 50
[1]; strain 27853, combination agent Erythromycin
  Fold Shift Static Dose: <1.5x
[1]; strain 27853, combination agent Erythromycin (60 mg/kg in text)
  Static Dose, LpxC in combination: 40
[1]; strain 27853, combination agent Oxacillin
  Static Dose, LpxC in combination: 50
[1]; [6]
  Fold Shift Static Dose: 1.9x
  Static Dose, LpxC in combination: 22
[1]; [7]
  Fold Shift Static Dose: 2.4x
  Static Dose, LpxC in combination: 25
[1]; with rifampin, P. aeruginosa ATCC27853
  shift in static dose: 2 fold
[2]; [8]
  AUC: 6870 ng·h/mL
  Cmax: 2630 ng/mL
  Tmax: 0.25 h
  half-life: 3.27 h
[2]; LpxCi-4 (10 mg/kg) alone
  AUC: 6030 ng·h/mL
  Cmax: 2200 ng/mL
  Tmax: 0.5 h
  half-life: 2.63 h
[2]; vancomycin at 220 mg/kg, 220 mg/kg
  PK / AUC of LpxCi-4 in the presence vs absence of vancomycin: not significantly affected; also recorded: essentially identical

## CO[C@@H]1[C@@H](OC(N)=O)[C@@H](O)[C@H](Oc2ccc3c(O)c(NC(=O)c4ccc(O)c(CC=C(C)C)c4)c(=O)oc3c2C)OC1(C)C [Novobiocin, novobiocin]
Klebsiella pneumoniae
  FICI index: ≦0.38
Pseudomonas aeruginosa
  FICI index: no effect
Yersinia enterocolitica
  FICI index: ≦0.63
Escherichia coli
  FICI index: ≦0.25

## CCCCCCCCCCNCCN[C@@]1(C)C[C@H](O[C@H]2[C@H](Oc3c4cc5cc3Oc3ccc(cc3Cl)[C@@H](O)[C@@H](NC(=O)[C@@H](CC(C)C)NC)C(=O)N[C@@H](CC(N)=O)C(=O)N[C@H]5C(=O)N[C@H]3C(=O)N[C@H](C(=O)N[C@H](C(=O)O)c5cc(O)c(CNCP(=O)(O)O)c(O)c5-c5cc3ccc5O)[C@H](O)c3ccc(c(Cl)c3)O4)O[C@H](CO)[C@@H](O)[C@@H]2O)O[C@@H](C)[C@H]1O [Telavancin, telavancin]
E. coli ATCC25922
  MIC: > 128 µg/mL
envA+ (D21) E. coli
  MIC: > 128 µg/mL
envA1 (D22) E. coli
  MIC: 16 µg/mL (≈ 9.11 µM)
  Fold decrease in MIC (envA+/envA1): ≧8
Klebsiella pneumoniae
  FICI index: ≦0.31
Pseudomonas aeruginosa
  FICI index: no effect
Yersinia enterocolitica
  FICI index: ≦0.5
Escherichia coli
  FICI index: no
